Test results: PubChem BioAssay AID2060337 (Molecular Pharmacology Branch, DTP, NCI, 2025)

Test system: 832693-133-R-J1-PDC multi-cell spheroids, viability
Assay: Anticancer human tumor 832693-133-R-J1-PDC patient-derived head and neck squamous carcinoma cell line growth inhibition [IpAb]
Conditions: for IC50: curve of first compound; for viability, T/C: stronger effect = lower value
Excerpt: Combinatorial screen of targeted agents with ipatasertib and abemaciclib in multi-cell type tumor spheroids
A high-throughput screen of multi-cell type tumor spheroids was designed to identify active combinations of targeted small molecules and ipatasertib or abemaciclib. Complex spheroids include a stromal component modeled by human endothelial cells (HUVEC) and fibroblasts modeled by human mesenchymal stem cells (MSCs). The concentration ranges selected for each drug and investigational agent were based upon clinically achievable concentrations if the clinical Cmax of the agent was known.
Compounds. The drugs and investigational agents: ipatasertib (NSC767898), abemaciclib(NSC768073), selumetinib (NSC741078), trametinib (758246), adavosertib (NSC754352), everolimus (NSC733504), sapanisertib (NSC764658), vemurafenib (NSC761431), venetoclax (NSC766270), copanlisib (NSC809693), apelisib (NSC765974), palbociblib (NSC758247), vemurafenib (NSC761431), dabrafenib (NSC764134), ravoxertinib (NSC781343), BMS-387032 (NSC767048), sotorasib (NSC818433), talazoparib (NSC767125) and afursertib (NSC778305), were obtained from the National Cancer Institute (NCI) Developmental Therapeutics Program Chemical Repository. The FDA-approved anticancer drug set is available from the NCI Developmental Therapeutics Program. […] The stock solutions were prepared in dimethyl sulfoxide (DMSO, Sigma-Aldrich, St. Louis, MO, cat. D2650) at 800-fold the tested concentration and stored at -70 degrees C prior to their use. All drugs and investigational agents were tested over a range starting from a high concentration at or near the clinical Cmax and decreasing in half-log increments. If the clinical Cmax for an agent had not been determined, the highest concentration tested was 10 microM.
NCI60 Cell Culture. NCI60 cell lines were obtained from the NCI Developmental Therapeutics Program Tumor Repository. For each lot of cells, the Repository performed Applied Biosystems AmpFLSTR Identifiler testing with PCR amplification to confirm consistency with the published Identifier STR profile for each cell line. Cells were kept in continuous culture for no more than 20 passages. The optimal seeding densities for each of the cell lines at each time point assessed were determined prior to performing the concentration response studies. Briefly, the NCI60 human tumor lines were grown as monolayers in RPMI 1640 medium supplemented with 10% FBS and 2 mmol/L L-glutamine.
An additional 9 lines were from the NCI60 cell line panel including MDA-MB-231 breast carcinoma, MDA-MB-468 breast carcinoma, MCF7 breast carcinoma, Hs578T breast carcinoma, MALME-3M melanoma, SK-MEL-2 melanoma, SK-OV-3 ovarian carcinoma, DU-145 prostate carcinoma, PC-3 prostate carcinoma, all cell lines along with major genetic alterations are listed on Table 2. Pooled donor human umbilical vein endothelial cells (HUVEC, Lonza, cat. CC-2519) and human mesenchymal stem cells (hMSC, Lonza, cat. PT-2501) were purchased from Lonza (Walkersville, MD).
PDMR cell lines were grown in complete medium (DC medium): Dulbecco's modified Eagle's medium (DMEM)/F12 supplemented with 5% fetal bovine serum (FBS), 2 mM L-glutamine, 100 U/mL penicillin and 100 µg/ml streptomycin, 0.4 µg/ml hydrocortisone, 10 ng/ml epidermal growth factor (EGF) recombinant human protein, 24 µg/mL adenine, and 0.1 mg/mL primocin. During culture from frozen stock vials, PDMR cells were cultured in the same medium containing 10 µM Y-27632 (see Table 3). The PDCs were cultured in complete DMEM/F12 media without 10 microM Y-27632 dihydrochloride for at least two passages prior to the screen. The pooled donor HUVEC and hMSC were cultured in endothelial cell growth medium 2 (PromoCell, Heidelberg, Germany, cat. C-22011) and mesenchymal stem cell growth medium 2 (PromoCell, cat. C-28009), respectively. For all experiments, HUVEC and hMSC were used at passages </=5.
[…]
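Further: spheroids exposed to the drugs for one week before the viability readout.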
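Wherever viability, T/C is given: 100% = DMSO vehicle control wells.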

What does the source list for C=CCn1c(=O)c2cnc(Nc3ccc(N4CCN(C)CC4)cc3)nc2n1-c1cccc(C(C)(C)O)n1 + CC(C)NCC(C(=O)N1CCN(c2ncnc3c2C(C)CC3O)CC1)c1ccc(Cl)cc1?
IC50 (second compound 0.1 µM): 133 nM; IC50 (second compound 0.316 µM): 76.7 nM; IC50 (second compound 1 µM): 35.8 nM; IC50 (second compound 3.16 µM): < 31.6 nM; IC50 (second compound 10 µM): 42.9 nM; viability, T/C (second compound 0.1 µM, first compound 0.0316 µM): 86%; viability, T/C (second compound 0.1 µM, first compound 0.1 µM): 58%; viability, T/C (second compound 0.1 µM, first compound 0.316 µM): 25.8%; viability, T/C (second compound 0.1 µM, first compound 1 µM): 20.1%; viability, T/C (second compound 0.1 µM, first compound 3.16 µM): 22.8%; viability, T/C (second compound 0.1 µM, first compound 10 µM): 10.4%; viability, T/C (second compound 0.316 µM, first compound 0.0316 µM): 66.1%; viability, T/C (second compound 0.316 µM, first compound 0.1 µM): 45.8%; viability, T/C (second compound 0.316 µM, first compound 0.316 µM): 23%; viability, T/C (second compound 0.316 µM, first compound 1 µM): 14.6%; viability, T/C (second compound 0.316 µM, first compound 3.16 µM): 14.9%; viability, T/C (second compound 0.316 µM, first compound 10 µM): 6.24%; viability, T/C (second compound 1 µM, first compound 0.0316 µM): 51.7%; viability, T/C (second compound 1 µM, first compound 0.1 µM): 35.5%; viability, T/C (second compound 1 µM, first compound 0.316 µM): 18.3%; viability, T/C (second compound 1 µM, first compound 1 µM): 12.9%; viability, T/C (second compound 1 µM, first compound 3.16 µM): 11.6%; viability, T/C (second compound 1 µM, first compound 10 µM): 3.5%; viability, T/C (second compound 3.16 µM, first compound 0.0316 µM): 48.5%; viability, T/C (second compound 3.16 µM, first compound 0.1 µM): 36%; viability, T/C (second compound 3.16 µM, first compound 0.316 µM): 25.3%; viability, T/C (second compound 3.16 µM, first compound 1 µM): 16.1%; viability, T/C (second compound 3.16 µM, first compound 3.16 µM): 11.9%; viability, T/C (second compound 3.16 µM, first compound 10 µM): 3.31%; viability, T/C (second compound 10 µM, first compound 0.0316 µM): 52.4%; viability, T/C (second compound 10 µM, first compound 0.1 µM): 43.2%; viability, T/C (second compound 10 µM, first compound 0.316 µM): 26.1%; viability, T/C (second compound 10 µM, first compound 1 µM): 9.68%; viability, T/C (second compound 10 µM, first compound 3.16 µM): 6.52%; viability, T/C (second compound 10 µM, first compound 10 µM): 1.52%

Cn1cnc2c(F)c(Nc3ccc(Br)cc3Cl)c(C(=O)NOCCO)cc21 + CC(C)NCC(C(=O)N1CCN(c2ncnc3c2C(C)CC3O)CC1)c1ccc(Cl)cc1 was tested. Which IC50 (second compound 0.1 µM) did it give?
The IC50 was 95.2 nM.

And the IC50 (second compound 0.316 µM)?
The IC50 was under 9.49 nM.

And the IC50 (second compound 1 µM)?
The IC50 was under 9.49 nM.

What about the IC50 (second compound 3.16 µM) of the same molecule?
Its IC50 is under 9.49 nM.

What about the IC50 (second compound 10 µM) of the same molecule?
The IC50 was 160 nM.

And the viability, T/C (second compound 0.1 µM, first compound 0.00949 µM)?
Its viability, T/C is 77%.

And the viability, T/C (second compound 0.1 µM, first compound 0.03 µM)?
The viability, T/C was 66.9%.

What about the viability, T/C (second compound 0.1 µM, first compound 0.0949 µM) of the same molecule?
Its viability, T/C is 45.5%.

What about the viability, T/C (second compound 0.1 µM, first compound 0.3 µM) of the same molecule?
Its viability, T/C is 38.7%.

What about the viability, T/C (second compound 0.1 µM, first compound 0.949 µM) of the same molecule?
Its viability, T/C is 27.1%.

What about the viability, T/C (second compound 0.1 µM, first compound 3 µM) of the same molecule?
The viability, T/C was 14.7%.

And the viability, T/C (second compound 0.316 µM, first compound 0.00949 µM)?
The viability, T/C was 49.5%.

And the viability, T/C (second compound 0.316 µM, first compound 0.03 µM)?
Its viability, T/C is 39.9%.

What about the viability, T/C (second compound 0.316 µM, first compound 0.0949 µM) of the same molecule?
Its viability, T/C is 33.7%.

And the viability, T/C (second compound 0.316 µM, first compound 0.3 µM)?
The viability, T/C was 30.6%.

And the viability, T/C (second compound 0.316 µM, first compound 0.949 µM)?
Its viability, T/C is 17.4%.

And the viability, T/C (second compound 0.316 µM, first compound 3 µM)?
The viability, T/C was 11.2%.

And the viability, T/C (second compound 1 µM, first compound 0.00949 µM)?
Its viability, T/C is 44.3%.

And the viability, T/C (second compound 1 µM, first compound 0.03 µM)?
Its viability, T/C is 32%.

And the viability, T/C (second compound 1 µM, first compound 0.0949 µM)?
Its viability, T/C is 30.4%.

And the viability, T/C (second compound 1 µM, first compound 0.3 µM)?
The viability, T/C was 17.7%.

And the viability, T/C (second compound 1 µM, first compound 0.949 µM)?
Its viability, T/C is 12.5%.

And the viability, T/C (second compound 1 µM, first compound 3 µM)?
The viability, T/C was 8.67%.

What about the viability, T/C (second compound 3.16 µM, first compound 0.00949 µM) of the same molecule?
Its viability, T/C is 42.9%.

And the viability, T/C (second compound 3.16 µM, first compound 0.03 µM)?
The viability, T/C was 35.3%.

And the viability, T/C (second compound 3.16 µM, first compound 0.0949 µM)?
The viability, T/C was 28.6%.

What about the viability, T/C (second compound 3.16 µM, first compound 0.3 µM) of the same molecule?
The viability, T/C was 22.4%.

What about the viability, T/C (second compound 3.16 µM, first compound 0.949 µM) of the same molecule?
The viability, T/C was 15.8%.

What about the viability, T/C (second compound 3.16 µM, first compound 3 µM) of the same molecule?
The viability, T/C was 11.9%.

And the viability, T/C (second compound 10 µM, first compound 0.00949 µM)?
Its viability, T/C is 64%.

And the viability, T/C (second compound 10 µM, first compound 0.03 µM)?
Its viability, T/C is 68.1%.

What about the viability, T/C (second compound 10 µM, first compound 0.0949 µM) of the same molecule?
The viability, T/C was 58.7%.

What about the viability, T/C (second compound 10 µM, first compound 0.3 µM) of the same molecule?
The viability, T/C was 38.7%.

What about the viability, T/C (second compound 10 µM, first compound 0.949 µM) of the same molecule?
The viability, T/C was 14.6%.

And the viability, T/C (second compound 10 µM, first compound 3 µM)?
The viability, T/C was 4.33%.
